Measurements from patent publication US20230323293A1, “EXPANSION CULTURE MEDIUM AND CULTURE METHOD FOR NEURAL CELLS” (INSTITUTE OF ZOOLOGY, CHINESE ACADEMY OF SCIENCES, priority 2020, published 2023).

Experiments:
microglial progenitors = test: Proliferation of microglial progenitors; format: cell-based; details: 10 μM
Procedure: • (1) On the 0th day, ESCs were digested with Accutase into single cells, counted and inoculated into a V-bottom 96-well plate at a concentration of 10,000/well, and cultured statically. • (2) From the 0th to 4th day, the medium was microglial induction medium: DMEM/F12, 20% KOSR, 1× Glutamax, 1×NEAA, 50 ng/ml BMP4, 50 ng/ml VEGF, 20 ng/ml SCF, 10 μM Y-27632. • (3) On the 4th day, the suspended EBs were subjected to adherent culture in a 6-well plate, the culture medium was changed on the 4th day and then the static culture was carried out until the 11th day. From the 4th to 11th day, the culture medium was microglial differentiation medium: X-VIVO15, 1× Glutamax, 25 ng/ml IL-34, 50 ng/ml M-CSF. At this stage, Blebbistatin was added at a concentration of 10 μM. • (4) On the 11th day, the single cells suspended in the medium were collected and counted, and the EBs were continued to be cultured with the microglial differentiation medium, and the suspended cells in the supernatant were collected every 7 days for a total of 3 collections. • (5) Maturation of microglial cells: The supernatant was discarded after centrifugation, the cells were resuspended in a microglial maturation medium and inoculated on Matrigel pre-coated culture plates. The microglial cells matured after being continuously cultured for 14 days. […]

GABA progenitor cells = test: Proliferation of GABA progenitor cells; format: cell-based, human; details: 10 μM, P4 to P5, versus control group
Procedure: (§1) (1) hESCs were cultured and differentiation was conducted until about 80% confluence. On the 0th day, the cells were dissociated with Dispase (1 U/mL), and the bottom cell mass was harvested and spread on an ultra-low adsorption 10 cm culture dish.
(2) From the 1st day, the neural induction was started by using NIM medium supplemented with 100 nM LDN193189, 10 μM SB431542, and 2 μM XAV939. […]

astrocytes = test: Expansion experiment of astrocytes; format: cell-based, human; details: 10 μM, P2 to P6, versus control group
Procedure: as §1, with “plated in” for “spread on”, “dish. • (2) From the 1st day, the neural induction was started by replacing with NIM medium supplemented with neural induction molecules 100 nM LDN193189 and 10 μM SB431542. […]” for “dish.”

NSCs = test: Proliferation of neural stem cells; format: cell-based, human; details: 10 μM, P4 to P6
Procedure: The differentiation method was referred to Tchieu et al., A Modular Platform for Differentiation of Human PSCs into All Major Ectodermal Lineages. 2017, Cell Stem Cell 21, 399-410.
NSCs were cultured with expansion medium after adherence, DMEM/F12 (1×, Gibco) supplemented with […] human (EGF) (R&D), […] (bFGF) (R&D), 5 μg/ml Heparin (Sigma), 2% B27 (Gibco), 1× GlutaMAX, and 10 μM Blebbistatin was added to the experimental group. Half of the culture medium was changed every day.

SMILES: Cc1ccc2c(c1)C(=O)[C@]1(O)CCN(c3ccccc3)C1=N2 [Blebbistatin, (S)-(−)-Blebbistatin]
- proliferation of microglial progenitors and differentiation efficiency (microglial progenitors): could promote the proliferation of microglial progenitors and improve the differentiation efficiency
- number of suspension cells collected (microglial progenitors; first two collections, versus control group): increased significantly
- expansion ability of GABA progenitor cells (GABA progenitor cells): significantly improved
- expansion ability of astrocytes (astrocytes): significantly improved
- expansion of NSCs (NSCs): significantly promoted the expansion of NSCs
